The supplement of paper PMC10307832

Tests used:
Assay in all cases: relative viability (nuclei count vs DMSO), 5 days (fraction); higher = more cells survive
[1] = compound: CN(C)CC1=CC(=CC=C1)N=C(C2=CC=CC=C2)C3=C(NC4=C3C=CC(=C4)C(=O)N(C)C)O + CC(=O)Nc1cccc(-n2c(=O)n(C3CC3)c(=O)c3c(Nc4ccc(I)cc4F)n(C)c(=O)c(C)c32)c1 [Trametinib] (partner 0.02 µM)
In short: (§1)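 Values are medians from duplicate plates. Each reflects relative viability, defined as the nuclei count of treated wells over that of vehicle wells. Lung cancer cell lines in 1536-well plates were pin-tool dosed one day after seeding with one drug alone or with a fixed anchor-drug dose plus five library-drug doses (not always all listed) in √10 steps, then fixed, stained and imaged at 4× after 5 days.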

[2] = compound: CN(C)CC1=CC(=CC=C1)N=C(C2=CC=CC=C2)C3=C(NC4=C3C=CC(=C4)C(=O)N(C)C)O + COc1cccc2cc(-c3nc([C@H]4CC[C@H](C(=O)O)CC4)n4ncnc(N)c34)[nH]c12 [OSI-027] (partner 0.5 µM)
In short: as §1

[3] = compound: CN(C)CC1=CC(=CC=C1)N=C(C2=CC=CC=C2)C3=C(NC4=C3C=CC(=C4)C(=O)N(C)C)O + CS(=O)(=O)CCNCc1ccc(-c2ccc3ncnc(Nc4ccc(OCc5cccc(F)c5)c(Cl)c4)c3c2)o1 [Lapatinib] (partner 2 µM)
In short: as §1

[4] = compound: CN(C)CC1=CC(=CC=C1)N=C(C2=CC=CC=C2)C3=C(NC4=C3C=CC(=C4)C(=O)N(C)C)O + C[C@]1(O)C[C@@H](c2nc(-c3ccc4ccc(-c5ccccc5)nc4c3)c3c(N)nccn32)C1 [Linsitinib] (partner 1 µM)
In short: as §1

Cell Line | relative viability ([1]; first compound 0.253 µM) | relative viability ([1]; first compound 0.8 µM) | relative viability ([1]; first compound 2.53 µM) | relative viability ([1]; first compound 8 µM) | relative viability ([2]; first compound 0.08 µM) | relative viability ([2]; first compound 0.253 µM) | relative viability ([2]; first compound 0.8 µM) | relative viability ([2]; first compound 2.53 µM) | relative viability ([2]; first compound 8 µM) | relative viability ([3]; first compound 0.08 µM) | relative viability ([3]; first compound 0.253 µM) | relative viability ([3]; first compound 0.8 µM) | relative viability ([3]; first compound 2.53 µM) | relative viability ([3]; first compound 8 µM) | relative viability ([4]; first compound 0.08 µM) | relative viability ([4]; first compound 0.253 µM) | relative viability ([4]; first compound 0.8 µM) | relative viability ([4]; first compound 2.53 µM) | relative viability ([4]; first compound 8 µM) | relative viability ([1]; first compound 0.08 µM)
NCI-H23 | 0.503 | 0.357 | 0.404 | 0.339 | 0.609 | 0.696 | 0.518 | 0.683 | 0.378 | 1.39 | 1.26 | 1.03 | 0.984 | 0.886 | 0.628 | 0.73 | 0.598 | 0.554 | 0.531 | 
NCI-H322M | 0.497 | 0.477 | 0.487 | 0.468 | 0.581 | 0.562 | 0.555 | 0.499 | 0.475 | 0.612 | 0.599 | 0.54 | 0.564 | 0.575 | 1.04 | 0.816 | 0.677 | 0.887 | 0.707 | 0.49
NCI-H358 | 0.171 | 0.125 | 0.092 | 0.129 | 0.824 | 0.706 | 0.633 | 0.671 | 0.549 | 0.46 | 0.347 | 0.468 | 0.425 | 0.413 | 0.779 | 0.715 | 0.673 | 0.621 | 0.464 | 0.146
NCI-H460 | 0.133 | 0.195 | 0.0771 | 0.163 | 0.615 | 0.727 | 0.824 | 0.65 | 0.335 | 1.1 | 0.967 | 1.04 | 0.776 | 0.741 | 0.841 | 0.758 | 0.893 | 0.471 | 0.54 | 0.142
NCI-H520 | 0.703 | 0.664 | 0.594 | 0.497 | 0.213 | 0.247 | 0.267 | 0.3 | 0.218 | 0.774 | 0.801 | 0.766 | 0.791 | 0.724 | 0.896 | 0.878 | 0.919 | 0.834 | 0.97 | 0.493
NCI-H596 | 0.873 | 0.921 | 0.821 | 0.723 | 0.738 | 1.03 | 0.639 | 0.744 | 0.659 | 1.12 | 1.32 | 0.971 | 1.05 | 1.13 | 1.11 | 1.07 | 1.06 | 1 | 1.11 | 0.809
NCI-H647 | 0.492 | 0.434 | 0.388 | 0.299 | 0.711 | 0.772 | 0.754 | 0.461 | 0.539 | 1.15 | 1.03 | 0.944 | 0.957 | 0.603 | 1.29 | 1.11 | 0.858 | 1.12 | 0.795 | 0.463
NCI-H650 | 1.17 | 0.975 | 0.812 | 0.964 | 0.529 | 0.561 | 0.583 | 0.507 | 0.42 | 1.02 | 1.12 | 1.07 | 0.706 | 0.755 | 0.854 | 0.965 | 0.952 | 0.83 | 0.767 | 0.974
NCI-H661 | 0.551 | 0.54 | 0.591 | 0.592 | 0.718 | 0.679 | 0.665 | 0.718 | 0.567 | 0.502 | 0.433 | 0.559 | 0.472 | 0.291 | 0.623 | 0.549 | 0.529 | 0.574 | 0.455 | 0.565
NCI-H727 | 0.368 | 0.428 | 0.391 | 0.426 | 0.72 | 0.581 | 0.59 | 0.573 | 0.537 | 0.7 | 0.855 | 0.834 | 0.734 | 0.665 | 0.253 | 0.349 | 0.197 | 0.281 | 0.24 | 
NCI-H838 | 0.51 | 0.494 | 0.473 | 0.431 | 0.347 | 0.469 | 0.513 | 0.417 | 0.354 | 0.972 | 1.01 | 1.08 | 0.895 | 0.685 | 1.05 | 0.96 | 0.981 | 0.88 | 0.826 | 0.528
NCI-H1355 | 0.407 | 0.314 | 0.392 | 0.51 | 0.463 | 0.457 | 0.393 | 0.491 | 0.329 | 1.08 | 1.02 | 0.955 | 0.948 | 0.885 | 0.849 | 0.885 | 0.656 | 0.774 | 0.762 | 0.472
NCI-H1395 | 0.96 | 1.16 | 1 | 0.892 | 0.647 | 0.813 | 0.711 | 0.62 | 0.628 | 0.948 | 1.14 | 1.2 | 0.892 | 0.943 | 1.08 | 0.838 | 1.08 | 0.788 | 0.995 | 0.983
NCI-H1437 | 0.53 | 0.475 | 0.572 | 0.656 | 1.02 | 0.917 | 0.983 | 0.877 | 0.942 | 0.839 | 0.772 | 0.978 | 0.775 | 0.835 | 0.948 | 1.07 | 1.05 | 1.01 | 1.03 | 0.574
NCI-H1651 | 0.819 | 0.863 | 0.851 | 0.788 | 0.846 | 0.874 | 0.731 | 0.645 | 0.783 | 0.76 | 0.762 | 0.77 | 0.599 | 0.796 | 0.88 | 1.2 | 0.923 | 0.789 | 0.801 | 0.857
